Measured values from ChEMBL document CHEMBL5550185, “Targeting hTERT Promoter G-Quadruplex DNA Structures with Small-Molecule Ligand to Downregulate hTERT Expression for Triple-Negative Breast Cancer Therapy” (J Med Chem, 2024).
The source made the active and inactive calls. The calls are words filed in the database; no cut-off is given here.

Tests used:
[1] = test system: Quadruplex DNA; experiment: Binding affinity to human TERT G4 DNA in Tris-HCl buffer at pH 7.4 assessed as fold increase in fluorescence signal at 5 uM by fluorescence spectrometer relative to control; assay type: nucleic-acid assay
[2] = test system: DNA; experiment: Binding affinity to Ds26 duplex DNA (unknown origin) assessed as thermal stability by measuring change in melting temperature at 400 uM […]; assay type: nucleic-acid assay
[3] = test system: DNA; experiment: Binding affinity to Ds26 duplex DNA (unknown origin) assessed as change in gibbs free energy at 400 uM by ITC analysis; assay type: nucleic-acid assay
[4] = test system: Quadruplex DNA; experiment: Binding affinity to Bcl-2 G4 DNA (unknown origin) assessed as change in gibbs free energy at 400 uM by ITC analysis; assay type: nucleic-acid assay
[5] = test system: Quadruplex DNA; experiment: Binding affinity to Telo21 G4 DNA (unknown origin) assessed as change in enthalpy at 400 uM by ITC analysis; assay type: nucleic-acid assay
[6] = test system: Quadruplex DNA; experiment: Binding affinity to Telo21 G4 DNA (unknown origin) assessed as change in gibbs free energy at 400 uM by ITC analysis; assay type: nucleic-acid assay
[7] = test system: Quadruplex DNA; experiment: Binding affinity to hTERT G4 DNA assessed as thermal stability by measuring change in melting temperature at 400 uM […]; assay type: nucleic-acid assay; conditions: Homo sapiens
[8] = target: Quadruplex DNA; experiment: Binding affinity to hTERT G4 DNA assessed as dissociation constant by ITC analysis; assay type: nucleic-acid assay, Homo sapiens
[9] = test system: Quadruplex DNA; experiment: Binding affinity to hTERT G4 DNA assessed as change in gibbs free energy at 400 uM by ITC analysis; assay type: nucleic-acid assay; conditions: Homo sapiens
[10] = Selectivity ratio of binding affinity to human TERT G4 DNA to binding affinity to Telo21 G4 DNA (unknown origin)
[11] = Drug localization in nucleus of telomerase-positive human MDA-MB-231 cells at 5 uM incubated for 10 mins by Hoechst 33342 staining based confocal microscopic analysis; assay type: ADME, subcellular; conditions: mda-mb-231, 10 min
[12] = test system: MDA-MB-231; experiment: Inhibition of hTERT protein expression in human MDA-MB-231 cells measured after 48 hrs by Western blot analysis; assay type: functional, cell-based; conditions: dose 0-1.5 µM
[13] = test system: MDA-MB-231; experiment: Induction of telomere dysfunction in human MDA-MB-231 cells assessed as telomer length shortening effect at 0.2 uM measured after 10 days by qRT-PCR analysis; assay type: functional, cell-based; conditions: time 10.0 day
[14] = test system: MDA-MB-231; experiment: Inhibition of cell migration in human MDA-MB-231 cells at 0 to 1.5 uM measured after 48 hrs by crystal violet staining based microscopic analysis; assay type: functional; conditions: dose 0-1.5 µM
[15] = test system: MDA-MB-231; experiment: Cytotoxicity against human MDA-MB-231 cells assessed as inhibition of cell growth incubated for 48 hrs in presence of TBHP by MTT assay; assay type: functional, cell-based; conditions: MDA-MB-231, 48 h
[16] = test system: MDA-MB-231; experiment: Induction of mitochondrial dysfunction in human MDA-MB-231 cells assessed as increase in mitochondrial ROS production at 0 to 1.5 uM incubated for 48 hrs by Hoechst33342 staining based microscopic analysis; assay type: functional, cell-based; conditions: dose 0-1.5 µM
[17] = test system: MDA-MB-231; experiment: Disruption of energy metabolism in human MDA-MB-231 cells assessed as reduction in cellular energy production by measuring reduction in ATP production at 0 to 1.5 uM measured after 2 hrs by Seahorse XF24 analyzer; assay type: functional, cell-based; conditions: dose 0-1.5 µM
[18] = test system: MDA-MB-231; experiment: Upregulation of glycolysis metabolic pathway in human MDA-MB-231 cells assessed as fold increase at 1.5 uM measured after 2 hrs by Seahorse XF24 analyzer relative to control; assay type: functional
[19] = test system: MDA-MB-231; experiment: Induction of mitochondrial phagocytosis in human MDA-MB-231 cells assessed as increase in autophagic vesicle formation measured after 48 hrs by MitoTracker Deep Red FM staining based live-cell confocal microscopic analysis; assay type: functional; conditions: dose 0-1.5 µM
[20] = test system: MDA-MB-231; experiment: Induction of autophagy in human MDA-MB-231 cells assessed as engulfment of damaged mitochondria by lysosomes by measuring lysosome-mitochondria colocalization at 0 to 1.5 uM measured after 48 hrs by LysoTracker Blue DND-22/MitoTracker Deep Red FM staining based confocal microscopic analysis; assay type: functional, cell-based; conditions: dose 0-1.5 µM
[21] = test system: MDA-MB-231; experiment: Downregulation of Artemis transcription level in human MDA-MB-231 cells at 1 uM measured after 48 hrs by RNA-seq analysis; assay type: functional, cell-based
[22] = test system: MDA-MB-231; experiment: Downregulation of ND3 gene expression in human MDA-MB-231 cells at 1 uM measured after 48 hrs by RNA-seq analysis; assay type: functional, cell-based
[23] = Upregulation of TGFBR2 gene expression in human MDA-MB-231 cells assessed as fold change at 1 uM measured after 48 hrs by RNA-seq analysis relative to control; assay type: functional
[24] = Upregulation of PLK1 gene expression in human MDA-MB-231 cells assessed as fold change at 1 uM measured after 48 hrs by RNA-seq analysis relative to control; assay type: functional
[25] = Upregulation of TGFB2 gene expression in human MDA-MB-231 cells assessed as fold change at 1 uM measured after 48 hrs by RNA-seq analysis relative to control; assay type: functional
[26] = Upregulation of SKP2 gene expression in human MDA-MB-231 cells assessed as fold change at 1 uM measured after 48 hrs by RNA-seq analysis relative to control; assay type: functional
[27] = Upregulation of SAT1 gene expression in human MDA-MB-231 cells assessed as fold change at 1 uM measured after 48 hrs by RNA-seq analysis relative to control; assay type: functional
[28] = Upregulation of HMOX1 gene expression in human MDA-MB-231 cells assessed as fold change at 1 uM measured after 48 hrs by RNA-seq analysis relative to control; assay type: functional
[29] = Toxicity in female Balb/c nude mouse xenografted with human MDA-MB-231 cells assessed as signs of poor health at 2 to 5 mg/kg, iv administered via tail vein every 2 days for 16 days; assay type: organism-based; conditions: in vivo, 384 h, dose 2-5 mg/kg, time 16 day
[30] = Toxicity in female Balb/c nude mouse xenografted with human MDA-MB-231 cells assessed as change in […] level at 2 to 5 mg/kg, iv administered via tail vein every 2 days for 16 days; assay type: organism-based; conditions: in vivo, 384 h, dose 2-5 mg/kg, time 16 day
[31] = Toxicity in female Balb/c nude mouse xenografted with human MDA-MB-231 cells assessed as change in mean corpuscular volume at 2 to 5 mg/kg, iv administered via tail vein every 2 days for 16 days; assay type: organism-based; conditions: in vivo, 384 h, dose 2-5 mg/kg, time 16 day
[32] = Toxicity in female Balb/c nude mouse xenografted with human MDA-MB-231 cells assessed as pathological changes in heart at 2 to 5 mg/kg, iv administered via tail vein every 2 days for 16 days by H and E staining based analysis; assay type: organism-based; conditions: in vivo, 384 h, dose 2-5 mg/kg, time 16 day

Compound: C[n+]1c(/C=C/c2c[nH]c3ccccc23)cc(/C=C2\Sc3ccccc3N2CCCN2CCC(C(F)(F)F)CC2)c2ccccc21.[I-]
- fold change (FC) [1]: 29
- ΔTm [2]: 1.01 °C
- deltaG [3]: -6.45 kcal/mol
- deltaG [4]: -7.43 kcal/mol
- deltaH [5]: -1.09 kcal/mol
- deltaG [6]: -7.49 kcal/mol
- ΔTm [7]: 11.7 °C
- Kd [8]: 1140 nM
- deltaG [9]: -8.11 kcal/mol
- Selectivity ratio [10]: 2
- Drug uptake [11]: Active
- inhibition [12]: Dose-Dependent Effect
- Activity [13]: Active
- inhibition [14]: Active
- IC50 [15]: 670 nM
- Activity [16]: Active
- Activity [17]: Active
- fold change (FC) [18]: >0.8
- Activity [19]: Active
- Activity [20]: Active
- Activity [21]: Active
- Activity [22]: Active
- fold change (FC) [23]: >2
- fold change (FC) [24]: >2
- fold change (FC) [25]: >2
- fold change (FC) [26]: >2
- fold change (FC) [27]: >2
- fold change (FC) [28]: >2
- Activity [29]: Non-Toxic
- Activity [30]: Non-Toxic
- Activity [31]: Non-Toxic
- Activity [32]: Non-Toxic
